Ends that are not written are not given here.
Legend:
[1] = tested on: peripheral blood lymphocytes (PBL) of RA/JCA patients; assay: 6-days proliferation assay on PBLs of RA and JCA patients; format: cell-based, human; settings: number of patients with PBL proliferation >2 times background; 15-mers at 1 μg/ml and 10 μ/ml
Experimental: T-cell responses to the selected peptides in patients are analysed by studying T-cell proliferation of peripheral blood lymphocytes (PBL) and synovial fluid derived cells. […] In these human studies the peptides are tested as 15-mers containing the 9-mer sequence of Table 2 as core sequence. […] This is further strengthened by the fact that, the patients were not selected for having a certain MHC haplotype. The MHC binding affinity of the selected peptides is analysed for the most-common MHC class II-arthritis associations. In Table 3 the peptide binding affinity for DRB1*0401 is shown as an example. The peptide binding affinity is tested in a MHC-peptide competition assay on isolated MHC molecules in the presence of a labelled marker peptide. The fact that of the n=12 peptides selected for binding to the rat DQ equivalent RT1.B^1, n=11 peptides also bind DRB1*0401, further confirms the promiscuous MHC binding of the selected peptides. This ensures a wide applicability of the peptides for prophylaxis, treatment, monitoring and/or diagnosis of the disease.
^ Indicated are the numbers of patients responding to tire peptides as defined in a 6-days proliferation assay on PBLs. Responses were considered positive if the proliferation (as measured by ^3H-thymidine incorporation) was >2 times background proliferation. Peptides were tested in concentrations of 1 μg/ml and 10 μ/ml.

DRB1*0401 = DRB1*0401 (Homo sapiens, UniProt P01903+P01911, A100K/A169T/F76Y/I96L/K127E/L162R/M171V/N62H/P40V/Q125Y/R42H/S133A/S149N/S66Y/V115G/V209L/W38E); assay: MHC-peptide competition binding assay on isolated DRB1*0401 molecules; settings: DRB1*0401 1 μM, biotinylated HA-marker peptide 100 nM, peptide 0-256 μM; read-out: DRB1*0401 binding (IC50)
Experimental: T-cell responses to the selected peptides in patients are analysed by studying T-cell proliferation of peripheral blood lymphocytes (PBL) and synovial fluid derived cells. […] In these human studies the peptides are tested as 15-mers containing the 9-mer sequence of Table 2 as core sequence. […] The MHC binding affinity of the selected peptides is analysed for the most-common MHC class II-arthritis associations. […] The peptide binding affinity is tested in a MHC-peptide competition assay on isolated MHC molecules in the presence of a labelled marker peptide.
# MHC-peptide binding was measured as described in Wauben et al., Int. Immunol. […] Peptide binding is expressed as tire IC50.

T cell clone A2b = assay: Recognition by A2b T-cell clone: proliferation and/or activation marker expression; format: cell-based, Lewis rats; settings: positive: proliferation more than 2 times background in 2 of 4 experiments and/or activation marker upregulation in 2 of 3 experiments
Experimental: As an immediate read-out for mimicry peptides T-cell activation is measured by proliferation, TcR downregulation, expression of activation markers, and cytokines responses of clone A2b. In addition A2b-like T cells from arthritic rats are isolated, and activation of such cells is measured by, proliferation, TcR downregulation, expression of activation markers, and cytokines responses. Furthermore, T-cell lines are generated after immunisation with MT/IFA or selected peptides/DDA. The cross-reactive nature of the peptide specific T-cell responses is analysed in vitro by determining the recognition of both the self peptide as well as the mycobacterial hsp65 178-186 peptide. After testing the panel of n=65 peptides for induction of proliferation of T cell clone A2b, and/or induction of expression of activation markers, n=20 peptides (SEQ ID NOs: 15, 19, 20, 21, 22, 23, 24, 26, 30, 31, 32, 33, 35, 49, 51, 61, 63, 65, 67, 69) were considered positive. Criteria for positivity were that in 2 out of 4 experiments the induced proliferation was more than 2 times background proliferation as measured by ^3H-thymidine incorporation, and/or that in 2 out of 3 experiments upregulation of an activation marker was detectable by FACS analysis.

arthritis = assay: Arthritis induction by immunisation with peptide in DDA adjuvant; format: in vivo; settings: rats with clinical arthritis/rats immunised; 50 μg peptide in 100 μl DDA, one hind footpad
Experimental: To check the arthritogenic potential of the selected peptides, rats are immunised with 50 μg peptide in 100 μl DDA adjuvant in one hind footpad. […] Two of the five peptides show defined clinical arthritis. * Arthritis is induced by Immunisation of 50 μg peptide in 100 μl DDA adjuvants in one hind footpad and scored upon clinical examination.

adjuvant arthritis = assay: Nasal peptide administration in the adjuvant arthritis model; format: in vivo, rats; settings: for Day of onset / Arthritis score: 100 μg peptide nasal at days 0, 3, 7, 11, mean±sd, n=4 rats; for Arthritis score: scale 0-16
Experimental: The potential arthritis protective qualities of selected peptides/proteins are tested through nasal or oral tolerance induction in the adjuvant arthritis model.
* Adjuvant arthritis is induced at day 0 by immunisation of MT/IFA (5 mg/ml MT) at the base of the tail. At days 0, 3, 7 and 11, 100 μg peptide in 10 μl saline is administered in the nostrils. Arthritis is scored upon clinical examination on a scale from 0-16. Data are expressed as mean±sd (n=4 rats/group).

DTH reaction = assay: Delayed type hypersensitivity reaction after peptide/DDA immunisation; format: in vivo, rats; settings: challenge day 72, peptide/saline s.c. in ear; measured 24 and 48 hr
Experimental: # DTH (Delayed type hypersensitivity) reactions are induced at day 72 after immunisation of peptide/DDA, by subcutaneous injection of the peptide/saline in the ear. DTH are measured 24 and 48 hr after challenge.

MHC class II RT1.B^L = target: T1, MHC class II RT1.B^L (Rattus norvegicus, UniProt P20037+P29826); assay: MHC-peptide competition binding assay on isolated RT1.B^L molecules; design: species or system Lewis rat
T1 sequence (P20037 24-256): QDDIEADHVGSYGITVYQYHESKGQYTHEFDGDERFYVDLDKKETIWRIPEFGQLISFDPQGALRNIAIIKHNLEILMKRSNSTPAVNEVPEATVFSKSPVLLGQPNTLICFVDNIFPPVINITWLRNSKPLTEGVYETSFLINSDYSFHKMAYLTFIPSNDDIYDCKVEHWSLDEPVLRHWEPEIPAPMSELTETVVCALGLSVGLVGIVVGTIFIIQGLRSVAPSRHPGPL
T1 sequence (P29826 28-263): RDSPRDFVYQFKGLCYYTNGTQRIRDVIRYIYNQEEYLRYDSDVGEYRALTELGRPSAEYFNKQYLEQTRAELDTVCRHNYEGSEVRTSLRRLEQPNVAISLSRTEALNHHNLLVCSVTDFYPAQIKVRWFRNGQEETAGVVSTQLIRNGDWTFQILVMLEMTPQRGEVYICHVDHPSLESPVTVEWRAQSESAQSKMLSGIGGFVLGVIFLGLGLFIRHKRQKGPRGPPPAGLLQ
Excerpt: Because the rat self-antigen to which the A2b T-clone is reactive is not known at present time, the present inventors have designed a computer search strategy based on the interactions of the mycobacterial hsp65 178-186 peptide within the trimolecular complex of MHC class II (RT1.B^L)-mycobacterial hsp65 178-186-T-cell receptor of clone A2b, to identify relevant candidate arthritis-associated antigens that can serve as target for autoimmune T-cell mediated tissue destruction in arthritis. Within the mycobacterial hsp65 178-186 sequence, residues involved in MHC binding have been identified by using an MHC-peptide binding assay on isolated MHC class II RT1.B^L proteins. The residues which have an important role in determining the RT1.B^L binding affinity of the mycobacterial hsp65 178-186 peptide, the so-called MHC anchor residues were determined. By studying the MHC-peptide binding affinities of other non-related peptides, a general MHC-peptide binding motif for the Lewis rat RT1.B1 molecule was defined (Wauben et al., Int. Immunol. 9:281 (1997)). For the definition of residues within the minimal core sequence mycobacterial hsp65 180-186, interacting with the T-cell receptor of the A2b T cell clone, the results derived from MHC-peptide binding assays, and proliferation assays of the A2b T cell clone were integrated.
#RT1.B^L binding affinity is expressed as 50%ID (=inhibitory dose). The 50%ID value indicates the concentration of peptide needed to inhibit 50% binding of the marker peptide in a competition assay on isolated RT1.B^L molecules.

[2] = tested on: T cells from inguinal and popliteal lymph nodes and spleen; assay: T-cell recognition (proliferation) during adjuvant arthritis time course; format: cell-based, Lewis rats; settings: positive: proliferation more than 1.5 times background in more than 25% of organs; days 14, 19, 21, 32, 39

Question: Which results are given for “FFYFFTGSSQLEFDP [SEQ ID NO: 70, FFYFFTGSSQLEFDP]”?
Answer: JCA patients responding (n = 6 tested) [1]: 2; RA patients responding (n = 39 tested) [1]: 29^; IC50 (DRB1*0401): < 8 µM

Question: Which results are given for “LKSVNGQIE (listed as Rattus sp.) [SEQ ID NO: 15]”?
Answer: Recognition by T cell clone A2b (T cell clone A2b): positive; Arthritis Induction (arthritis): 0/4; Day of onset (adjuvant arthritis): 15.0 ± 1.7; Protective effect in adjuvant arthritis upon nasal administration (adjuvant arthritis; in words): protective effect; Arthritis score (adjuvant arthritis): 4.3 ± 4.8; DTH reaction (DTH reaction): 2/2

Question: “NAMLKSICEVLDLER [SEQ ID NO: 81, NAMLKSICEVLDLER]” was tested. Which “JCA patients responding (n = 6 tested)” value [1] did it give?
Answer: 1

Question: What about the “RA patients responding (n = 39 tested)” value [1] of the same sequence?
Answer: 2

Question: What about the IC50 (DRB1*0401) of the same sequence?
Answer: > 256 µM

Question: Which results are given for “SAFWPSLPSYLDAAY [SEQ ID NO: 71, SAFWPSLPSYLDAAY]”?
Answer: RA patients responding (n = 39 tested) [1]: 4; IC50 (DRB1*0401): 8 to 16 µM

Question: Which “RA patients responding (n = 39 tested)” value [1] does the source give for “SSFWPSLPSGVDAAY [SEQ ID NO: 73, SSFWPSLPSGVDAAY]” here?
Answer: 4

Question: And the IC50 (DRB1*0401)?
Answer: 16 to 32 µM

Question: Which IC50 (MHC class II RT1.B^L) does the source give for TFGLQAELT [SEQ ID NO: 9, TFGLQAELT] here?
Answer: 32 to 64 µM

Question: With TFGLQLALT [SEQ ID NO: 10, TFGLQLALT] as the sequence, how does the IC50 (MHC class II RT1.B^L) read?
Answer: 128 to 256 µM

Question: For TFGLQLEAT [SEQ ID NO: 11, TFGLQLEAT], which IC50 (MHC class II RT1.B^L) is on record?
Answer: 32 to 64 µM

Question: TFGLQLELA [SEQ ID NO: 12, TFGLQLELA] was tested. Which IC50 (MHC class II RT1.B^L) did it give?
Answer: 32 to 64 µM

Question: How did the IC50 (MHC class II RT1.B^L) turn out when “TFGLQLELT [SEQ ID NO: 3, TFGLQLELT, reference compound]” was run?
Answer: 32 to 64 µM

Question: Which “Arthritis Induction” value (arthritis) does the source give for “VQTAVTNID (listed as Rattus sp.) [SEQ ID NO: 53]” here?
Answer: 0/4

Question: What about the “T-cell recognition during adjuvant arthritis” value [2] of the same sequence?
Answer: positive

Question: And the DTH reaction (DTH reaction)?
Answer: 2/2

Question: Which “Recognition by T cell clone A2b” value (T cell clone A2b) does the source give for “VSSFSLNVE (listed as Rattus sp.) [SEQ ID NO: 26]” here?
Answer: positive

Question: And the “Arthritis Induction” value (arthritis)?
Answer: 0/4

Question: And the Day of onset (adjuvant arthritis)?
Answer: 13.0 ± 0

Question: What about the Arthritis score (adjuvant arthritis) of the same sequence?
Answer: 11.0 ± 3.5

Question: And the DTH reaction (DTH reaction)?
Answer: 2/2

Question: “WPSLPSGLD (listed as Rattus sp.) [SEQ ID NO: 50]” was tested. Which “Arthritis Induction” value (arthritis) did it give?
Answer: 2/4

Question: What about the Day of onset (adjuvant arthritis) of the same sequence?
Answer: 14.3 ± 2.0

Question: And the Arthritis score (adjuvant arthritis)?
Answer: 11.3 ± 3.8

Question: What about the “T-cell recognition during adjuvant arthritis” value [2] of the same sequence?
Answer: positive

Question: And the DTH reaction (DTH reaction)?
Answer: 0/2

Question: Which “Arthritis Induction” value (arthritis) does the source give for “WPSLPSNMD (listed as Rattus sp.) [SEQ ID NO: 48]” here?
Answer: 1/4

Question: What about the Day of onset (adjuvant arthritis) of the same sequence?
Answer: 13.3 ± 1.0

Question: What about the Arthritis score (adjuvant arthritis) of the same sequence?
Answer: 10.5 ± 1.7

Question: And the DTH reaction (DTH reaction)?
Answer: 0/2
